{
  "source": "patent US20260078089A1",
  "about": "“BIOACTIVE PHYTOCHEMICALS IN ZIZYPHUS AND GUARANA” (Phytoquest Limited, priority 2018, published 2026)",
  "key": {"[1]": {"system": "male ddy mouse", "experiment": "Sucrose loading test, blood glucose in mice", "format": "in vivo", "conditions": "oral sucrose 2.5 g/kg, test sample 500 mg/kg body weight, mean n = 5", "protocol": "The animal experimental protocols in this study were approved by the Animal Experiments Committee of the University of Toyama (S-2010 UH-2). Male ddy mice (29-33 g) after an overnight fast were used for acute disaccharide loading tests. Maltose (2.5 g/kg body weight) or Sucrose (2.5 g/kg body weight) as well as the test samples were dissolved in 0.9% NaCl solution and administered to mice via a stomach tube. A control group was loaded with saline only.\nBlood samples for glucose measurements were obtained from the tail vein at 0, 15, 30, 60, and 120 min after disaccharide-loading. The blood glucose levels were measured by a portable kit, Antsence II™ (Sankyo Co. Ltd. Tokyo, Japan). The Zizyphus extract HS0810/142/41 as well as the purified compounds were tested in this way."}, "[2]": {"molecular_target": "T1, Amyloglucosidase (Aspergillus niger, UniProt P69328)", "T1 construct": "purchased Sigma Aldrich Chemicals Limited", "T1 sequence (P69328 25-640)": "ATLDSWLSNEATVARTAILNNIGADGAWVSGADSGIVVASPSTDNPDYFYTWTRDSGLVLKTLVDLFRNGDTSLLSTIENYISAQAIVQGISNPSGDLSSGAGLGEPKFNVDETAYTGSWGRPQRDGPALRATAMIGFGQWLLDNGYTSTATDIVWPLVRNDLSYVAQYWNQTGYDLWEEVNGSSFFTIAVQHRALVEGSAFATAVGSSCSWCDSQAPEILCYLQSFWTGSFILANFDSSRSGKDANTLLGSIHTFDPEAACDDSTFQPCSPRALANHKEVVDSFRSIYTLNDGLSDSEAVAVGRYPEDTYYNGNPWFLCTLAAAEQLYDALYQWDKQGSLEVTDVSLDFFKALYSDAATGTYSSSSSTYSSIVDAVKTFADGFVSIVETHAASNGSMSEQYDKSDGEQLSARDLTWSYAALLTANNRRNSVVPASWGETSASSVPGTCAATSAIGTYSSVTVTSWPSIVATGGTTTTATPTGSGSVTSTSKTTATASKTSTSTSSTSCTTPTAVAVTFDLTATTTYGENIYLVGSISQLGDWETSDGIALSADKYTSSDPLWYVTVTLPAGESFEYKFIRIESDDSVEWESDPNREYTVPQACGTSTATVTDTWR", "experiment": "Glycosidase assay, p-nitrophenyl substrate", "format": "biochemical", "conditions": "Aspergillus niger enzyme; screened at 0.14 mg mL−1 (footnote: 0.4 mM)", "protocol": "(§1) Glycosidase assays were conducted as described by Watson et al. (Phytochemistry 1997, 46, 255) using p-nitrophenyl-substrates (except sialidase which used methylumbeliferyl-N-acetyineuraminic acid as substrate). Assays were carried out in microtitre plates. Enzymes were assayed in 0.1 M citric acid/0.2 M di-sodium hydrogen phosphate (McIlvaine) buffers at the optimum pH for the enzyme. All assays were carried out at 20° C. All enzymes and substrates were purchased from Sigma Aldrich Chemicals Limited. The incubation mixture consisted of 10 μl of enzyme solution, 10 μl of the iminosugars solution and 50 μl of the appropriate 5 mM p-nitrophenyl substrate made up in McIlvaine buffer at the optimum pH for the enzyme. The reactions were stopped with 0.4 M glycine (pH 10.4) during the exponential phase of the reaction. Absorbances were read at 405 nm. Water was substituted for the alkaloids in the blanks. Reactions were carried out in triplicate.\n(§2) Enzyme inhibitor solutions—Compounds were dissolved in distilled water at a concentration of 1 mg mL^−1 and then screened at a concentration of 0.14 mg mL^−1 after dilution of the 1 mg mL^−1 in the assay volumes of substrates."}, "[3]": {"molecular_target": "T2, N-acetyl-β-D-hexosaminidase (Aspergillus oryzae, UniProt Q8J2T0)", "T2 construct": "purchased Sigma Aldrich Chemicals Limited", "T2 sequence (Q8J2T0 97-600)": "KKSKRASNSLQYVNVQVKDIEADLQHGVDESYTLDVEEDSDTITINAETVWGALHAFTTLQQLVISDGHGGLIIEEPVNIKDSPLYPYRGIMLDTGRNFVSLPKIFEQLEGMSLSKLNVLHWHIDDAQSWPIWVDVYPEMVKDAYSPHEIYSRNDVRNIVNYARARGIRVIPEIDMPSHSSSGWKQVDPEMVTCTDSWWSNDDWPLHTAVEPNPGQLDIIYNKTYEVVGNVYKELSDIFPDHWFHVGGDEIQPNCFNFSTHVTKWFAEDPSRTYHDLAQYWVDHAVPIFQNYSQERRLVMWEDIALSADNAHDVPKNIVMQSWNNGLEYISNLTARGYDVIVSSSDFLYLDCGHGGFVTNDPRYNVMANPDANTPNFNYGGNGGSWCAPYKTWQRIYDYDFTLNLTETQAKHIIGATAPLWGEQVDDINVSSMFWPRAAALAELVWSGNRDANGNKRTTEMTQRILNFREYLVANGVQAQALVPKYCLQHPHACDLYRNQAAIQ", "experiment": "Glycosidase assay, p-nitrophenyl substrate", "format": "biochemical", "conditions": "Aspergillus oryzae enzyme; screened at 0.14 mg mL−1 (footnote: 0.4 mM)", "protocol": "as §1, §2"}, "[4]": {"system": "Naringinase", "experiment": "Glycosidase assay, p-nitrophenyl substrate", "format": "biochemical", "conditions": "Penicillium decumbens enzyme; screened at 0.14 mg mL−1 (footnote: 0.4 mM)", "protocol": "as §1, §2"}, "[5]": {"molecular_target": "T3, α-D-galactosidase (Coffea arabica, UniProt Q42656)", "T3 construct": "purchased Sigma Aldrich Chemicals Limited", "T3 sequence (Q42656 16-378)": "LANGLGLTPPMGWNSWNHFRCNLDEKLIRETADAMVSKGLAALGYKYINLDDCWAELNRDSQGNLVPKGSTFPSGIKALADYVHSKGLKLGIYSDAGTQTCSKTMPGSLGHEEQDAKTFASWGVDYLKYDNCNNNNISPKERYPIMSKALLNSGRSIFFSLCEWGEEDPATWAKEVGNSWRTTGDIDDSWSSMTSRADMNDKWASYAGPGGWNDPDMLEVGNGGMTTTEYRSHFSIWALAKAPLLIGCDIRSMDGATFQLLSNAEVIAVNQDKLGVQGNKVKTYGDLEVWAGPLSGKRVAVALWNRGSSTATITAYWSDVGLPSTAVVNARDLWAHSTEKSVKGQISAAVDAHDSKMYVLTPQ", "experiment": "Glycosidase assay, p-nitrophenyl substrate", "format": "biochemical", "conditions": "Green coffee bean enzyme; screened at 0.14 mg mL−1 (footnote: 0.4 mM)", "protocol": "as §1, §2"}, "[6]": {"molecular_target": "T4, α-D-glucosidase (Oryza sativa subsp. japonica, UniProt Q653V7)", "T4 construct": "purchased Sigma Aldrich Chemicals Limited", "T4 sequence (Q653V7 34-885)": "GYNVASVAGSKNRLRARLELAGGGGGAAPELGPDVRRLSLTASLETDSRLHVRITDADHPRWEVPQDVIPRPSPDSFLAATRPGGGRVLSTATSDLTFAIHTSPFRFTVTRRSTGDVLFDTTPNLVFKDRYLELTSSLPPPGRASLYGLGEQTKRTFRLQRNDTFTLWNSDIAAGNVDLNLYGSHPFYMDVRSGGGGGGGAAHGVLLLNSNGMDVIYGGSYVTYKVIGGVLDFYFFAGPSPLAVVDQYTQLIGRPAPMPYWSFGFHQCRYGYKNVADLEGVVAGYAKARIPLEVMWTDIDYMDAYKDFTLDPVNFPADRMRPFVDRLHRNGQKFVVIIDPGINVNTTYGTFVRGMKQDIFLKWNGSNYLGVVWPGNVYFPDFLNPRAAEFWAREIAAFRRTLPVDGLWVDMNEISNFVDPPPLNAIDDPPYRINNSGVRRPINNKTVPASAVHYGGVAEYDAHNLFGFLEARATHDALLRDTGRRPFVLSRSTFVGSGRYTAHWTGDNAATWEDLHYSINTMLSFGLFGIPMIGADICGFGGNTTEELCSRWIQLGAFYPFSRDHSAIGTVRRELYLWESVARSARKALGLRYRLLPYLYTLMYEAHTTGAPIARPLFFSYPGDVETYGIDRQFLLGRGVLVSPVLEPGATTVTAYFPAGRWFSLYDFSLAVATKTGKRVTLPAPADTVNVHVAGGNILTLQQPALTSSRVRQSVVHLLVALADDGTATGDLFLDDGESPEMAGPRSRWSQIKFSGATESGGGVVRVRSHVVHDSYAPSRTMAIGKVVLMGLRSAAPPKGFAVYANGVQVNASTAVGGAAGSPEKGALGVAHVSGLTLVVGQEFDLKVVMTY", "experiment": "Glycosidase assay, p-nitrophenyl substrate", "format": "biochemical", "conditions": "Rice enzyme; screened at 0.14 mg mL−1 (footnote: 0.4 mM)", "protocol": "as §1, §2"}, "[7]": {"system": "α-D-glucosidase", "experiment": "Glycosidase assay, p-nitrophenyl substrate", "format": "biochemical", "conditions": "Bacillus sterothermphilus enzyme; screened at 0.14 mg mL−1 (footnote: 0.4 mM)", "protocol": "as §1, §2"}, "[8]": {"system": "β-D-glucosidase", "experiment": "Glycosidase assay, p-nitrophenyl substrate", "format": "biochemical", "conditions": "Almond enzyme; screened at 0.14 mg mL−1 (footnote: 0.4 mM)", "protocol": "as §1, §2"}, "[9]": {"system": "β-D-mannosidase", "experiment": "Glycosidase assay, p-nitrophenyl substrate", "format": "biochemical", "conditions": "Cellullomonas fimi enzyme; screened at 0.14 mg mL−1 (footnote: 0.4 mM)", "protocol": "as §1, §2"}, "[10]": {"system": "sialidase (NanH from T. forsythia)", "experiment": "Sialidase assay with MUNANA substrate", "format": "biochemical, Tannerella forsythia", "conditions": "1 mM inhibitor, 2.5 nM sialidase, 0.1 mM MUNANA, pH 7.2", "protocol": "(§3) Sialidase assays used 1 mM inhibitor (or water without inhibitor) and 2.5 nM sialidase (including NanH from T. forsythia) incubated in the presence of 0.1 mM methylumbeliferyl-N-acetylneuraminic acid, pH 7.2 in 20 mM sodium phosphate buffer. Reactions were stopped at 30 seconds and 60 seconds via addition of ph 10.5 60 mM sodium carbonate buffer. Release of fluorogenic MU was quantified by measuring fluorescence emission at 450 nm, excitation 350 nm. Percentage sialidase activity was expressed as the change in fluorescence between 30 seconds and 60 seconds compared to that of a reaction without inhibitor. Reactions were carried out in triplicate.\nMU release can be used to quantify sialidase activity.\nas §3, with “1” for “Sialidase assays used 1”, “forsythia) was” for “forsythia)”, “MUNANA,” for “methylumbeliferyl-N-acetylneuraminic acid,”, “7.2” for “7.2 in”, “Sodium Phosphate” for “sodium phosphate”"}},
  "data": [
    {"compound": "OC[C@H]1N[C@H](CO)[C@@H](O)[C@@H]1O", "note": "[DMDP]", "values": [
      {"measurement": "blood glucose", "setting": "[1]; 0 min after administration", "result": 98, "unit": "mg/dL"},
      {"measurement": "blood glucose", "setting": "[1]; 15 min after administration", "result": 115, "unit": "mg/dL"},
      {"measurement": "blood glucose", "setting": "[1]; 30 min after administration", "result": 100, "unit": "mg/dL"},
      {"measurement": "blood glucose", "setting": "[1]; 60 min after administration", "result": 88, "unit": "mg/dL"},
      {"measurement": "blood glucose", "setting": "[1]; 120 min after administration", "result": 53, "unit": "mg/dL"},
      {"measurement": "% inhibition", "setting": "[2]", "result": 46.84, "unit": "%"},
      {"measurement": "% inhibition", "setting": "[3]", "result": 5.62, "unit": "%"},
      {"measurement": "% inhibition", "setting": "[4]", "result": 2.97, "unit": "%"},
      {"measurement": "% inhibition", "setting": "[5]", "result": 6.95, "unit": "%"},
      {"measurement": "% inhibition", "setting": "[6]", "result": 94.59, "unit": "%"},
      {"measurement": "% inhibition", "setting": "[7]", "result": 92.98, "unit": "%"},
      {"measurement": "% inhibition", "setting": "[8]", "result": 96.61, "unit": "%"},
      {"measurement": "% inhibition", "setting": "[9]", "result": 93.34, "unit": "%"},
      {"measurement": "% inhibition", "setting": "[10]", "result": "−2", "unit": "%"}
    ]}
  ]
}
